Patent US5855905A, “Compound preparation for the treatment of hypogonadal men and men with hypophyseal diseases” (priority 1996, dated 1999)

Columns and labels:
[1] = tested on: endogenic testosterone production; details: cited from earlier work; for inhibition of endogenic testosterone production: Oettel 1993
hypogonadal men = experiment: Clinical study in 23 hypogonadal men: clinical findings (efficacy and side effects)
[2] = Clinical study in hypogonadal men: serum hormone levels
[3] = tested on: cholesterol, lipoprotein and lipase levels; details: testosterone esters; cited from earlier work
[4] = 5α-dihydrotestosterone vs testosterone; cited from earlier work
[5] = Pharmacokinetic behaviour of DHT (patch) in combination with estriol gel, transdermal, 18 healthy young male test persons; details: human, in vivo, topical or ocular
Procedure: Pharmacokinetic Behaviour of Dihydrotestosterone (DHT) in Combination with Estriol Gel
In a randomized study, the pharmacokinetic behaviour of DHT and estriol after transdermal application was examined in 18 healthy young male test persons.
The DHT patch contains 150 mg of the active ingredient and was left on the test persons' skin for 24 hours. This galenic form releases 6 mg of DHT per day.
The estriol gel contains 5 mg of active ingredient in 0.5 g of gel. This gel formulation was applied one time to 150 cm^2 of skin (forearm).
For analysis, 12 blood samples were taken from each test person after the application over a period of 48 hours.

[6] = cited from earlier work
[7] = Pharmacokinetic behaviour of mesterolone in combination with estradiol valerate, single oral application, 24 healthy young male test persons; details: human, in vivo
Procedure: Pharmacokinetic Behaviour of Mesterolone in Combination with Estradiol Valerate (EV)
In a randomized study, the kinetic behaviour of mesterolone (25 mg tablet) in combination with EV (1 mg lozenge) after a single oral application was examined in 24 healthy young male test persons.
Each test person was administered mesterolone and EV after a monitored fasting period of 12 hours. After the application, 18 blood samples were taken from each test person over a period of 60 hours.

[8] = mesterolone 25 mg tablet + EV 1 mg lozenge, single oral

In the case of CCCCCCC(=O)O[C@H]1CC[C@H]2[C@@H]3CCC4=CC(=O)CC[C@]4(C)[C@H]3CC[C@]12C [testosterone enanthate], the “period of reversible inhibition of endogenic testosterone production” value ([1]; patients with working gonadal testosterone biosynthesis (Humpel and Oettel 1994)) is listed as “about 2 weeks”, the gynaecomastia (hypogonadal men; 12 months) is listed as “Five out of 12” and the “increase in the size of the prostatic glands / prostatic hyperplasia” value (hypogonadal men; 12 months) is listed as “could not be detected”. The pelage increase (hypogonadal men; 12 months) was “All men experienced a pelage increase”, the “prostate-specific antigen (PSA), change” value (hypogonadal men; 12 months) was “slightly up in all patients” and the volume/weight of testicles (hypogonadal men; 12 months) was “the volume of their testicles got smaller”. The Collagen depletion (hypogonadal men; Arm 1) was “not detected”, the “thickening of the skin, increase in water retention, tension and elasticity of the tissue” value (hypogonadal men; Arm 1) was “All participants in the study showed a thickening of the skin, an increase in water retention, and an improvement of the tension and elasticity of the tissue” and the “improvement of the morning erection” value (hypogonadal men; Arm 1, 12 months) was “Nine out of 12”. The “patients free of complaints” value (hypogonadal men; Arm 1, n=12) was “Nine”, the “increased susceptibility to acne / development of acne” value (hypogonadal men; Arm 1 after 4 months of treatment, Arm 2 12 months) was “Seven of the 12” and the “voice pitch / voice change” value (hypogonadal men; Arm 1 after 4 months, Arm 2 12 months) was “voice pitch of all men lowered towards a bass tone”. The “increase in penis size” value (hypogonadal men; Arm 1 n=12, Arm 2 n=11, 12 months) was 11 men/patients, the bone density (hypogonadal men; after 6 months of treatment) was “All patients showed an apparent increase in bone density” and the symptoms of andropause (hypogonadal men; hot flashing, exhaustion, weakness of concentration, reduced efficiency, disgruntlement, disturbances of libido and potency) was “became less frequent”. The “LH levels in the serum / LH synthesis” value ([2]; 12 months) was “reduced in the serum of all participants”, the “maximum values compared with testosterone levels in healthy men” value ([2]; Arm 1, 250 mg i.m.) was “significant increase” and the cumulation ([2]; Arm 1, testosterone, subsequent applications) was “no cumulation”. The “effect on HDL cholesterol” value [3] was “can cause a minor suppression” and the “effect on total and LDL cholesterol levels” value [3] was “only have a minor effect”.
For C[C@]12CC[C@@H]3c4ccc(O)cc4CC[C@H]3[C@@H]1CC[C@@H]2O [estradiol, 17β-estradiol], the “inhibition of endogenic testosterone production” value [1] is listed as “not been observed”.
In the case of C[C@]12CCC(=O)C[C@@H]1CC[C@@H]1[C@@H]2CC[C@]2(C)[C@@H](O)CC[C@@H]12 [DHT, 5α-dihydrotestosterone], the “inhibition of endogenic testosterone production” value [1] is given as “not been observed”, the “activity relative to testosterone” value [4] is given as “about twice as active as testosterone” and the Cmax ([5]; 150 mg) is given as 4.51 ± 1.23 ng/mL.
In the case of C[C@]12CC[C@@H]3c4ccc(O)cc4CC[C@H]3[C@@H]1C[C@@H](O)[C@@H]2O [estriol], the Cmax ([5]; 5 mg) is reported as 0.00882 ± 0.00254 ng/mL.
For C[C@]12CC[C@H]3[C@@H](CCC4=CC(=O)CC[C@@]43C)[C@@H]1CC[C@@H]2O [testosterone], the “estradiol levels in the plasma” value ([6]; intramuscular injection (Tenover 1992)) is given as “doubled” and the “increase of estradiol levels in the plasma” value ([6]; percutaneous application (Kuhn 1986)) is given as 70%.
With C[C@H]1CC(=O)C[C@@H]2CC[C@H]3[C@@H]4CC[C@H](O)[C@@]4(C)CC[C@@H]3[C@]21C [mesterolone] the concentration at 60 h ([7]; 60 h after single oral mesterolone 25 mg + EV 1 mg) was 0.48 ng/mL, the Cmax [7, 8] was 6.9 ng/mL and the Tmax [7, 8] was 8.9 h. For the same compound, the half-life [7, 8] was 13.2 h, the AUC at 60 h ([7]; mesterolone 25 mg tablet + EV 1 mg lozenge, single oral, 60 h) was 0.177 µg·h/mL and the “inhibition of endogenic testosterone production” value [1] was “not been observed”.
